For two molecules, NOXA induction results are on record in US20090011410A1, “METHOD FOR TAILORING ADMINISTRATION OF DRUGS BY QUANTITATION OF MRNA” (priority 2004, published 2009).

For this assay, the system named is NOXA mRNA. Briefly: drug-induced NOXA mRNA expression in whole blood of healthy adults (SYBR green PCR screen). The class given is cell-based, human. Conditions: 20 μM BLM or 100 μM VP-16, 4 hours at 37° C.; degree less than PUMA (FIG. 6). As for the experimental part: In 8-well strip microtubes, 1.4 μl of 50× concentrations of drugs or controls (phosphate buffered saline (PBS) or DMSO) were added, and stored at −20° C. until use. […] Seventy μl of fresh heparinized whole blood was added into each well in triplicate, and incubated at 37° C. for 2-8 hours with the cap closed. For radiation treatment, blood was stimulated at designated doses using cesium-137. After each treatment, 50 μl of whole blood was transferred to filterplates as described below.
The mRNA and cDNA were prepared from whole blood. In brief, home-made 96-well filterplates were placed over collection plates, and 150 μl 5 mM Tris, pH 7.4, was applied. Following centrifugation at 120×g for 1 min at 4° C., 50 μl of blood samples were applied to each well and immediately centrifuged at 120×g for 2 min at 4° C., followed by washing of each well with 300 μl PBS once with centrifugation at 2000×g for 5 min at 4° C. […] The Ct was determined by analytical software (SDS, ABI). […]
Quantitation of various mRNAs was conducted using the following method. […]

In the case of bleomycin [BLM], the NOXA induction result is listed as “induced in all individuals”. Under `COc1cc([C@@H]2c3cc4c(cc3[C@@H](O[C@@H]3O[C@@H]5CO[C@@H](C)O[C@H]5[C@H](O)[C@H]3O)[C@H]3COC(=O)[C@H]23)OCO4)cc(OC)c1O` [VP-16, etoposide] stands “induced in all individuals”.
